# Laboratory results as given in patent US20040055025A1, “Immune response replication in cloned animals” (Infigen, Inc., priority 2002, published 2004).
# Entries after “also recorded” stand apart in the source; their conditions may differ.
# Key:
# [1] = system: recipients; assay: Transfer of NT blastocysts from lovastatin-treated bovine cells into recipients: pregnancy outcome; type: in vivo
# Method: After blastomere-oocyte fusion, the cybrids from second generation NT were cultured in CR2 media supplemented with BSA (3 mg/ml) under humidified air with 5% CO2 at 39° C. On the third day of culture, developing embryos were evaluated and cultured further until day seven in CR2 media containing 10% FCS. Morphologically good to fair quality embryos were non-surgically transferred into recipient females.
# Similar results were obtained using statin-treated bovine cells in nuclear transfer procedures. […] One or two blastocysts were non-surgically transferred into 5 recipients of which two became pregnant (Table 3).
# [2] = system: ear cells derived from a newborn cloned calf (C188/Firstdown-FB000); assay: Nuclear transfer with lovastatin-treated bovine ear cells: in vitro embryo development; type: cell-based; details: for Emb. Devel. (% Blastocyst): NT embryos from ear cells treated with lovastatin for 24 hours, day 7 of culture
# Method: Mycoplasma free totipotent cells used in the NT procedure, were prepared by cutting out a group of cells from the culture dish using a glass needle. The cells were then incubated in a TL HEPES solution containing from 1 to 3 mg/ml pronase E at approximately 32° C. for 15-60 minutes, the amount of time which was needed in this example to disaggregate the cells. Once the cells were in a single cell suspension they were used for NT within a 2-3 hour period.
# Oocytes aspirated from ovaries were matured overnight (16 hours) in maturation medium. Medium 199 (Biowhittaker, Cat #12-119F) supplemented with luteinizing hormone 10 IU/ml (LH; Sigma, Cat #L9773), […] (Sigma, Cat #E8875) and 10% FCS or estrus cow serum, was used. Within 16-17 hours of maturation, the cumulus layer expanded and the first polar bodies were extruded.
# In the first NT procedure, young oocytes (16-17 hours in maturation medium) were stripped of their cumulus cell layers and nuclear material stained with Hoechst 33342 5 mg/ml (Sigma, Cat #2261) in TL HEPES solution supplemented with cytochalasin B (7 μg/ml, Sigma, Cat #C6762) for 15 min. Oocytes were then enucleated in TL HEPES solution under mineral oil. A single cell of optimal size (12 to 15 μm) was then selected from a cell suspension and injected into the perivitelline space of the enucleated oocyte. The cell and oocyte membranes were then induced to fuse by electrofusion in a 500 μm chamber by application of an electrical pulse of 90V for 15 μs.
# Cybrid activation was induced by a 4 min exposure to 5 μM calcium ionophore A23187 (Sigma Cat. #C-7522) or ionomycin Ca-salt in HECM (hamster embryo culture medium) containing 1 mg/ml BSA followed by a 1:1000 dilution in HECM containing 30 mg/ml BSA for 5 min. For HECM medium, See, e.g., Seshagiri & Barister, 1989, “Phosphate is required for inhibition of glucose of development of hamster eight-cell embryos in vitro,” Biol. Reprod. 40: 599-606. […]
# [3] = system: ear cells (SA01-FB) used as nuclear donors; assay: Nuclear transfer with lovastatin-treated ovine ear cells: in vitro embryo development; type: cell-based, sheep; details: NT embryos from SA01-FB ear cells treated with 5 μM lovastatin for 24 hours; per day of NT
# Method: Oocytes were aspirated from sheep ovaries obtained from an abattoir and recovered in TL HEPES medium (Biowhittaker 04-616F) containing 10 mg/ml Heparin (Sigma H-3393) and 4 mg/ml BSA (Sigma A-6003). Aspirations were performed using 20 GA needles with the vacuum set at 60 mm Hg.
# Two maturation media were used to produce nuclear transfer pregnancies. Maturation Medium 1: TC199 (Gibco 11150-059), 2 mM Glutamine (Sigma G-5763), 10% FBS (Hyclone A-111D), 5 mg/ml ovine FSH (Sigma L-8174), 5 mg/ml ovine LH (Sigma L-5269), 1 mg/ml Estradiol (Sigma E-2257), 0.3 mM Na-pyruvate (Sigma P-4562), and […] (Sigma M-9768). Maturation Medium 3: TC199 (Gibco 11150-059), 10% FBS (Hyclone A-111D), 10 mg/ml ovine FSH (Sigma L-8174), 10 mg/ml ovine LH (Sigma L-5269), 1 mg/ml Estradiol (Sigma E-2257) and […] (Sigma M-9768).
# Typically, oocytes were stripped of cumulus cells after 17 hours in maturation medium by vortexing in 0.5 ml of TL-HEPES. The chromatin was stained with Hoechst 33342 (5 mg/ml, Sigma) in TL-HEPES solution for 15 minutes. Oocytes were then enucleated in TL-HEPES with or without calcium.
# All nuclear transfers were performed in TL HEPES containing calcium regardless of what enucleation medium was used. […]
# [4] = system: estrus synchronized ewes; assay: Transfer of NT blastocysts from lovastatin-treated ovine cells into recipient ewes: pregnancy outcome
smiles,measurement,setting,value
CC[C@H](C)C(=O)O[C@H]1C[C@@H](C)C=C2C=C[C@H](C)[C@H](CC[C@@H]3C[C@@H](O)CC(=O)O3)[C@H]21 [lovastatin],Number of recipients that became pregnant,[1]; of 5 recipients given one or two blastocysts,two
same,Outcome of pregnancies,[1]; two pregnancies from lovastatin treated bovine cells,One pregnancy aborted by day 32; also recorded: produced a live calf
same,Emb. Devel. (% Blastocyst),[2],19%
same,Emb. Devel. (% Blastocyst),[2]; listed as LOVASTATIN,19%
same,Number of blastocysts produced by day 7 of culture,[2]; lovastatin treated cells used in NT on two different days,6
same,"# of Bl. (blastocysts, day 7)",[3],one and four
same,Status (of recipient after embryo transfer),"[4]; NT blastocysts from lovastatin treated SA01-FB cells transferred into ewe, listed as L0",open and Lambed
same,Farrowed/Aborted,"[4]; Pregnancy Two, SA01-FB00 lovastatin treated, 4 Day 7 blastocysts transferred, recipient #56",farrowed
